# Assay results reported in patent US9963445B2, “Chemical compounds” (SYNGENTA PARTICIPATIONS AG, priority 2013, dated 2018).
# What was measured:
# Type in all cases: in vivo
# zea mays [1] = assay: Pre-emergence herbicidal activity, glasshouse pot test; settings: pre-emergence spray, rate 1000 g/ha, evaluated after 13 days, scale 0-5
# Protocol: (§1) Seeds of a variety of test species were sown in standard soil in pots. After cultivation for one day (pre-emergence) under controlled conditions in a glasshouse (at 24/16° C., day/night; 14 hours light; 65% humidity), the plants were sprayed with an aqueous spray solution derived from the formulation of the technical active ingredient in acetone/water (50:50) solution containing 0.5% Tween 20 (polyoxyethelyene sorbitan monolaurate, CAS RN 9005-64-5). The test plants were then grown in a glasshouse under controlled conditions (at 24/16° C., day/night; 14 hours light; 65% humidity) and watered twice daily. After 13 days, the test was evaluated (5=total damage to plant; 0=no damage to plant).
# (§2) ABUTH=Abutilon theophrasti; SOLNI=Solanum nigrum; AMARE=Amaranthus retroflexus; SETFA=Setaria faberi; ALOMY=Alopecurus myosuroides; ECHCG=Echinochloa crus-galli, ZEAMX=zea mays.
# Echinochloa crus-galli [2] = assay: as above; settings: pre-emergence spray, rate 1000 g/ha, evaluated after 13 days, scale 0-5
# Protocol: as §1, §2
# Setaria faberi [3] = assay: as above; settings: pre-emergence spray, rate 1000 g/ha, evaluated after 13 days, scale 0-5
# Protocol: as §1, §2
# Abutilon theophrasti [4] = assay: as above; settings: pre-emergence spray, rate 1000 g/ha, evaluated after 13 days, scale 0-5
# Protocol: as §1, §2
# Alopecurus myosuroides [5] = assay: as above; settings: pre-emergence spray, rate 1000 g/ha, evaluated after 13 days, scale 0-5
# Protocol: as §1, §2
# zea mays [6] = assay: Post-emergence herbicidal activity, glasshouse pot test; parameters: key: 0 = no damage to plant, 5 = total damage to plant; settings: Application post-emergence, rate 1000 g/ha, evaluated after 13 days
# Protocol: (§3) Seeds of a variety of test species were sown in standard soil in pots. After 8 days cultivation (post-emergence) under controlled conditions in a glasshouse (at 24/16° C., day/night; 14 hours light; 65% humidity), the plants were sprayed with an aqueous spray solution derived from the formulation of the technical active ingredient in acetone/water (50:50) solution containing 0.5% Tween 20 (polyoxyethelyene sorbitan monolaurate, CAS RN 9005-64-5). The test plants were then grown in a glasshouse under controlled conditions (at 24/16° C., day/night; 14 hours light; 65% humidity) and watered twice daily. After 13 days, the test was evaluated (5=total damage to plant; 0=no damage to plant).
# as §2
# Echinochloa crus-galli [7] = assay: as above; parameters: key: 0 = no damage to plant, 5 = total damage to plant; settings: Application post-emergence, rate 1000 g/ha, evaluated after 13 days
# Protocol: as §3, §2
# Setaria faberi [8] = assay: as above; parameters: key: 0 = no damage to plant, 5 = total damage to plant; settings: Application post-emergence, rate 1000 g/ha, evaluated after 13 days
# Protocol: as §3, §2
# Abutilon theophrasti [9] = assay: as above; parameters: key: 0 = no damage to plant, 5 = total damage to plant; settings: Application post-emergence, rate 1000 g/ha, evaluated after 13 days
# Protocol: as §3, §2
# Amaranthus retroflexus [10] = assay: as above; parameters: key: 0 = no damage to plant, 5 = total damage to plant; settings: Application post-emergence, rate 1000 g/ha, evaluated after 13 days
# Protocol: as §3, §2
# Alopecurus myosuroides [11] = assay: as above; parameters: key: 0 = no damage to plant, 5 = total damage to plant; settings: Application post-emergence, rate 1000 g/ha, evaluated after 13 days
# Protocol: as §3, §2
# Amaranthus retroflexus [12] = assay: Pre-emergence herbicidal activity, glasshouse pot test; settings: pre-emergence spray, rate 1000 g/ha, evaluated after 13 days, scale 0-5
# Protocol: as §1, §2
Compound,"ZEAMX damage score, application pre-emergence (zea mays [1])","ECHCG damage score, application pre-emergence (Echinochloa crus-galli [2])","SETFA damage score, application pre-emergence (Setaria faberi [3])","ABUTH damage score, application pre-emergence (Abutilon theophrasti [4])","ALOMY damage score, application pre-emergence (Alopecurus myosuroides [5])",ZEAMX herbicidal damage score (zea mays [6]),ECHCG herbicidal damage score (Echinochloa crus-galli [7]),SETFA herbicidal damage score (Setaria faberi [8]),ABUTH herbicidal damage score (Abutilon theophrasti [9]),AMARE herbicidal damage score (Amaranthus retroflexus [10]),ALOMY herbicidal damage score (Alopecurus myosuroides [11]),"AMARE damage score, application pre-emergence (Amaranthus retroflexus [12])"
1-(6-chloropyrimidin-4-yl)-2-hydroxy-4-methoxy-3-methyl-2H-pyrrol-5-one [CI2],1,4,4,1,2,,,,,,,
4-chloro-2-hydroxy-1-[5-iodo-4-(trifluoromethyl)-2-pyridyl]-3-methyl-2H-pyrrol-5-one [AF76],1,4,5,4,3,1,5,5,5,5,5,5
4-chloro-2-hydroxy-3-methyl-1-[4-(trifluoromethyl)-5-vinyl-2-pyridyl]-2H-pyrrol-5-one [AF18],2,5,4,5,4,2,5,5,5,5,5,5
"CC1=C(Cl)C(=O)N(c2cc(C(F)(F)F)c(Br)cn2)C1O (centres unmarked) [AF57, 1-[5-bromo-4-(trifluoromethyl)-2-pyridyl]-4-chloro-2-hydroxy-3-methyl-2H-pyrrol-5-one]",0,0,0,1,3,3,5,5,5,5,5,
CC1=C(Cl)C(=O)N(c2cc(C(F)(F)F)c(-c3ccc(Cl)cc3)cn2)C1O (centres unmarked) [AF90],0,0,3,0,,,,5,4,5,,2
COC1=C(C)C(O)N(c2cc(Cl)c(C(=O)NC(C)(C)C)cn2)C1=O (centres unmarked) [AI18],,5,5,,4,4,5,5,5,5,5,5
COC(=O)c1cnc(N2C(=O)C(OC)=C(C)C2O)cc1Cl (centres unmarked) [AI21],,0,0,,0,1,3,4,5,5,1,5
COC1=C(C)C(O)N(c2cc(C(C)C)c(C(=O)NC(C)(C)C)cn2)C1=O (centres unmarked) [AI30],,,,5,,,5,5,5,5,,5
COC1=C(C)C(O)N(c2cc(C)c(C(=O)NC(C)(C)C)cn2)C1=O (centres unmarked) [AI33],,4,5,,4,4,5,5,5,5,5,5
CC1=C(Cl)C(=O)N(c2cc(C(C)C)c(Cl)nn2)C1O (centres unmarked) [BF15],2,5,5,4,4,3,,,5,5,5,3
COC1=C(C)C(O)N(c2cc(C(C)C)c(Cl)nn2)C1=O (centres unmarked) [BI28],3,5,5,4,4,3,,,5,5,5,4
COC1=C(C)C(O)N(c2cc(C(C)(C)C)c(Cl)nn2)C1=O (centres unmarked) [BI32],4,5,5,4,4,4,,,5,5,5,3
CC1=C(Cl)C(=O)N(c2cc(Cl)ncn2)C1O (centres unmarked) [CF1],2,4,0,1,3,1,4,1,0,,4,5
COC1=C(C)C(O)N(c2cc(C(C)(C)C)ncn2)C1=O (centres unmarked) [CI1],4,4,5,5,4,,,,,,,5
"COC1=C(C)C(O)N(c2cc(NC(C)C)ncn2)C1=O (centres unmarked) [CI4, N2-hydroxy-1-[6-(isopropylamino)pyrimidin-4-yl]-4-methoxy-3-methyl-2H-pyrrol-5-one]",0,0,0,0,0,,,,,,,0
COC1=C(C)C(O)N(c2cc(C(C)(C)C#N)ncn2)C1=O (centres unmarked) [CI6],3,5,5,5,3,,,,,,,5
COC1=C(C)C(O)N(c2cc(C(C)(C)F)ncn2)C1=O (centres unmarked) [CI7],1,4,5,5,3,,,,,,,5
COC1=C(C)C(O)N(c2cc(C(C)(F)F)ncn2)C1=O (centres unmarked) [CI8],2,4,5,5,3,,,,,,,5
COC1=C(C)C(O)N(c2cc(N(C)C)ncn2)C1=O (centres unmarked) [CI9],0,1,1,2,1,,,,,,,3
